Assay results from patent US12391737B2, “Soluble NPY2 receptor agonists” (Boehringer Ingelheim International GmbH, priority 2020, dated 2025).
*1 amine or outer side, *2 acyl side, *3 side chain or, on linkers, in order; H or OH if unused. Where a SMILES comes first, the peptide text is derived from it. Side-chain parts run from the residue outwards. The star is where a group is joined. C18 diacid = O=C(O)CCCCCCCCCCCCCCCCC(=O)*; γGlu = O=C(O)[C@H](CCC(=O)[*:2])N[*:1]; Isovaleryl = CC(C)CC(=O)*; Ahx = NCCCCCC(=O)O

Assays:
[1] = biological target: T1, Human Neuropeptide Y2 Receptor (Homo sapiens, UniProt P49146); test: Radioligand binding competition assay (RLB); settings: Table 3, 125I-PYY(1-36) competition; read-out: Ki
T1 construct: purchased CHEMICON HTS066M
T1 sequence (P49146 1-381): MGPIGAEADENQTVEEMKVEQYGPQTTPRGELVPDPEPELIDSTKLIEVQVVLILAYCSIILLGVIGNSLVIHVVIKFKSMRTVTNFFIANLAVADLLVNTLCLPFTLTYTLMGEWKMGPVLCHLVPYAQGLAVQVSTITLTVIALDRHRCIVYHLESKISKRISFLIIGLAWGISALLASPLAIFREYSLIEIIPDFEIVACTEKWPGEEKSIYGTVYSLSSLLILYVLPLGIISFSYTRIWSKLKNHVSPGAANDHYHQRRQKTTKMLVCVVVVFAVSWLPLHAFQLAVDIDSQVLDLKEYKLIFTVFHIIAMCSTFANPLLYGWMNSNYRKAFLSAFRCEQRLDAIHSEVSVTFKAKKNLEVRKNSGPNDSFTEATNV
Procedure, shortened: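 Receptor membranes, 0.5 μg/well; buffer 50 mM HEPES/5 mM MgCl2/1 mM CaCl2/0.2% ovalbumin, pH 7.4; 2 h RT, shaking. GF/C filtration, cold HEPES/500 mM NaCl wash, scintillation count. IC50 by nonlinear regression.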

Solubility determination = settings: for Sol6: pH 6; for Sol7: pH 7
Procedure, shortened: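 Sample: TFA-salt peptide at 10 mg/ml target in 0.1 M Na diphosphate, pH 6.4 or 7.0, shaken 2 h RT, filtered, diluted to 1 mg/ml.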

CC(C)CC(=O)N[C@@H](C)C(=O)N1CCC[C@H]1C(=O)N[C@@H](CCC(=O)O)C(=O)N[C@@H](CCCCNC(=O)CCCCCNC(=O)CC[C@H](NC(=O)CCCCCCCCCCCCCCCCC(=O)O)C(=O)O)C(=O)N1CCC[C@H]1C(=O)N[C@@H](CCC(=O)O)C(=O)N[C@@H](CCC(=O)O)C(=O)N[C@@H](CC(=O)O)C(=O)N[C@@H](C)C(=O)N[C@H](C(=O)N1CCC[C@H]1C(=O)N[C@@H](CCC(=O)O)C(=O)N[C@@H](CCC(=O)O)C(=O)N[C@@H](CC(C)C)C(=O)N[C@@H](CCC(N)=O)C(=O)N[C@@H](CCCNC(=N)N)C(=O)N[C@@H](Cc1ccc(O)cc1)C(=O)N[C@@H](Cc1ccc(O)cc1)C(=O)N[C@H](C(=O)N[C@@H](CCC(=O)O)C(=O)N[C@@H](CC(C)C)C(=O)N[C@@H](CCCNC(=N)N)C(=O)N[C@@H](Cc1c[nH]cn1)C(=O)N[C@@H](Cc1ccc(O)cc1)C(=O)N[C@@H](Cc1ccc(O)cc1)C(=O)N[C@@H](CC(N)=O)C(=O)N[C@@H](Cc1c[nH]c2ccccc12)C(=O)N[C@@H](CC(C)C)C(=O)N[C@H](C(=O)N[C@@H](CCCNC(=N)N)C(=O)N[C@@H](CCC(N)=O)C(=O)N[C@@H](CCCNC(=N)N)C(=O)N[C@@H](Cc1ccc(O)cc1)C(N)=O)[C@@H](C)O)C(C)C)[C@@H](C)O [Compound 110, N{alpha-4}-(3-methylbutanoyl)-N{epsilon-7}-(6-[(4S)-4-carboxy-4-(17-carboxyheptadecanamido)butanamido]hexanoyl)-[4A,7K,9E,13T,18Q,22V,23E,28Y,30W,31L]-hPYY(4-36)]
Ki [1]: 6.42 nM
Sol6 (Solubility determination): 10.0 mg/mL
Sol7 (Solubility determination): >10.0 mg/mL

CC(C)CC(=O)N[C@@H](C)C(=O)N1CCC[C@H]1C(=O)N[C@@H](C)C(=O)N[C@@H](CCCCNC(=O)CCCCCNC(=O)CC[C@H](NC(=O)CCCCCCCCCCCCCCCCC(=O)O)C(=O)O)C(=O)N1CCC[C@H]1C(=O)N[C@@H](CCC(=O)O)C(=O)N[C@@H](CCC(=O)O)C(=O)N[C@@H](CC(=O)O)C(=O)N[C@@H](C)C(=O)N[C@@H](CO)C(=O)N1CCC[C@H]1C(=O)N[C@@H](CCC(=O)O)C(=O)N[C@@H](CCC(=O)O)C(=O)N[C@H](C(=O)N[C@@H](CCC(N)=O)C(=O)N[C@@H](CCCNC(=N)N)C(=O)N[C@@H](Cc1ccc(O)cc1)C(=O)N[C@@H](Cc1ccc(O)cc1)C(=O)N[C@H](C(=O)N[C@@H](CO)C(=O)N[C@@H](CC(C)C)C(=O)N[C@@H](CCCNC(=N)N)C(=O)N[C@@H](Cc1c[nH]cn1)C(=O)N[C@@H](Cc1ccc(O)cc1)C(=O)N[C@@H](Cc1ccc(O)cc1)C(=O)N[C@@H](CC(N)=O)C(=O)N[C@@H](Cc1c[nH]c2ccccc12)C(=O)N[C@@H](CC(C)C)C(=O)N[C@H](C(=O)N[C@@H](CCCNC(=N)N)C(=O)N[C@@H](CCC(N)=O)C(=O)N[C@@H](CCCNC(=N)N)C(=O)N[C@@H](Cc1ccc(O)cc1)C(N)=O)[C@@H](C)O)C(C)C)[C@@H](C)O [Compound 85, N{alpha-4}-(3-methylbutanoyl)-N{epsilon-7}-(6-[(4S)-4-carboxy-4-(17-carboxyheptadecanamido)butanamido]hexanoyl)-[4A,6A,7K,9E,17T,18Q,22V,28Y,30W,31L]-hPYY(4-36)]
Ki [1]: 1.61 nM
Sol6 (Solubility determination): 8.6 mg/mL
Sol7 (Solubility determination): 9.1 mg/mL

CC[C@H](C)[C@H](NC(=O)[C@H](Cc1ccc(O)cc1)NC(=O)[C@H](Cc1ccc(O)cc1)NC(=O)[C@H](CCCNC(=N)N)NC(=O)[C@H](CCC(N)=O)NC(=O)[C@H](CC(C)C)NC(=O)[C@H](CCC(=O)O)NC(=O)[C@H](CCC(=O)O)NC(=O)[C@@H]1CCCN1C(=O)[C@@H](NC(=O)[C@H](C)NC(=O)[C@H](CC(=O)O)NC(=O)[C@H](C)NC(=O)[C@H](CCC(=O)O)NC(=O)[C@@H]1CCCN1C(=O)[C@H](CCCCNC(=O)CCCCCNC(=O)CC[C@H](NC(=O)CCCCCCCCCCCCCCCCC(=O)O)C(=O)O)NC(=O)[C@H](CCC(=O)O)NC(=O)[C@@H]1CCCN1C(=O)[C@H](C)NC(=O)CC(C)C)[C@@H](C)O)C(=O)N[C@@H](C)C(=O)N[C@@H](CC(C)C)C(=O)N[C@@H](CCCNC(=N)N)C(=O)N[C@@H](Cc1c[nH]cn1)C(=O)N[C@@H](Cc1ccc(O)cc1)C(=O)N[C@@H](Cc1ccc(O)cc1)C(=O)N[C@@H](CC(N)=O)C(=O)N[C@@H](Cc1c[nH]c2ccccc12)C(=O)N[C@@H](CC(C)C)C(=O)N[C@H](C(=O)N[C@@H](CCCNC(=N)N)C(=O)N[C@@H](CCC(N)=O)C(=O)N[C@@H](CCCNC(=N)N)C(=O)N[C@@H](Cc1ccc(O)cc1)C(N)=O)[C@@H](C)O [Compound 100, N{alpha-4}-(3-methylbutanoyl)-N{epsilon-7}-(6-[(4S)-4-carboxy-4-(17-carboxyheptadecanamido)butanamido]hexanoyl)-[4A,7K,9E,10A,13T,18Q,22I,23A,28Y,30W,31L]-hPYY(4-36)]
Ki [1]: 1.01 nM
Sol6 (Solubility determination): 9.8 mg/mL
Sol7 (Solubility determination): 5.7 mg/mL

CC[C@H](C)[C@H](NC(=O)[C@H](CCC(=O)O)NC(=O)[C@H](CCC(=O)O)NC(=O)[C@@H]1CCCN1C(=O)[C@H](CCC(=O)O)NC(=O)[C@H](C)NC(=O)[C@H](C)NC(=O)[C@H](C)NC(=O)[C@H](CCC(=O)O)NC(=O)[C@@H]1CCCN1C(=O)[C@H](CCCCNC(=O)CCCCCNC(=O)CC[C@H](NC(=O)CCCCCCCCCCCCCCCCC(=O)O)C(=O)O)NC(=O)[C@H](C)NC(=O)[C@@H]1CCCN1C(=O)[C@H](C)NC(=O)CC(C)C)C(=O)N[C@@H](CCC(N)=O)C(=O)N[C@@H](CCCNC(=N)N)C(=O)N[C@@H](Cc1ccc(O)cc1)C(=O)N[C@@H](Cc1ccc(O)cc1)C(=O)N[C@H](C(=O)N[C@@H](CO)C(=O)N[C@@H](CC(C)C)C(=O)N[C@@H](CCCNC(=N)N)C(=O)N[C@@H](Cc1c[nH]cn1)C(=O)N[C@@H](Cc1ccc(O)cc1)C(=O)N[C@@H](Cc1ccc(O)cc1)C(=O)N[C@@H](CC(N)=O)C(=O)N[C@@H](Cc1c[nH]c2ccccc12)C(=O)N[C@@H](CC(C)C)C(=O)N[C@H](C(=O)N[C@@H](CCCNC(=N)N)C(=O)N[C@@H](CCC(N)=O)C(=O)N[C@@H](CCCNC(=N)N)C(=O)N[C@@H](Cc1ccc(O)cc1)C(N)=O)[C@@H](C)O)C(C)C [Compound 111, N{alpha-4}-(3-methylbutanoyl)-N{epsilon-7}-(6-[(4S)-4-carboxy-4-(17-carboxyheptadecanamido)butanamido]hexanoyl)-[4A,6A,7K,9E,10A,11A,13E,17I,18Q,22V,28Y,30W,31L]-hPYY(4-36)] (Isovaleryl-APAK([Ahx-γGlu-C18 diacid])PEAAAEPEEIQRYYVSLRHYYNWLTRQRY-NH2)
Ki [1]: 2.14 nM
Sol6 (Solubility determination): 0.0 mg/mL
Sol7 (Solubility determination): 0.0 mg/mL

CC(C)CC(=O)N[C@@H](C)C(=O)N1CCC[C@H]1C(=O)N[C@@H](CCC(=O)O)C(=O)N[C@@H](CCCCNC(=O)CCCCCNC(=O)CC[C@H](NC(=O)CCCCCCCCCCCCCCCCC(=O)O)C(=O)O)C(=O)N1CCC[C@H]1C(=O)N[C@@H](CCC(=O)O)C(=O)N[C@@H](CCC(=O)O)C(=O)N[C@@H](CC(=O)O)C(=O)N[C@@H](C)C(=O)N[C@H](C(=O)N1CCC[C@H]1C(=O)N[C@@H](CCC(=O)O)C(=O)N[C@@H](CCC(=O)O)C(=O)N[C@H](C(=O)N[C@@H](CCC(N)=O)C(=O)N[C@@H](CCCNC(=N)N)C(=O)N[C@@H](Cc1ccc(O)cc1)C(=O)N[C@@H](Cc1ccc(O)cc1)C(=O)N[C@H](C(=O)N[C@@H](CO)C(=O)N[C@@H](CC(C)C)C(=O)N[C@@H](CCCNC(=N)N)C(=O)N[C@@H](Cc1c[nH]cn1)C(=O)N[C@@H](Cc1ccc(O)cc1)C(=O)N[C@@H](Cc1ccc(O)cc1)C(=O)N[C@@H](CC(N)=O)C(=O)N[C@@H](Cc1c[nH]c2ccccc12)C(=O)N[C@@H](CC(C)C)C(=O)N[C@H](C(=O)N[C@@H](CCCNC(=N)N)C(=O)N[C@@H](CCC(N)=O)C(=O)N[C@@H](CCCNC(=N)N)C(=O)N[C@@H](Cc1ccc(O)cc1)C(N)=O)[C@@H](C)O)C(C)C)C(C)C)[C@@H](C)O [Compound 58, N{alpha-4}-(3-methylbutanoyl)-N{epsilon-7}-(6-[(4S)-4-carboxy-4-(17-carboxyheptadecanamido)butanamido]hexanoyl)-[4A,7K,9E,13T,17V,18Q,22V,28Y,30W,31L]-hPYY(4-36)]
Ki [1]: 3.46 nM
Sol6 (Solubility determination): 8.6 mg/mL
Sol7 (Solubility determination): 8.8 mg/mL
